Reference: US20220387430A1, “USE OF COMPOUND IN PREVENTING OR TREATING GRAFT VERSUS HOST DISEASE” (SHENZHEN CHIPSCREEN BIOSCIENCES, CO., LTD., priority 2019, published 2022)

Tested on: GVHD model mice (BALB/c receptor mice, C57BL/6 donor mice)
Assay: GVHD model induced by mouse allogeneic bone marrow transplantation
Type: in vivo
Conditions: for survival rate at 61 days: 61 days after allogeneic bone marrow transplantation
Excerpt: This study evaluates a pharmacodynamics effect of a test drug CS12192 in a GVHD model induced by mouse allogeneic bone marrow transplantation. In the GVHD model, 6-8 week old of two types of C57BL/6 (H-2b) and BALB/c (H-2d) male mice are used as donor and receptor animals respectively. Wherein, C57BL/6 mice are the donor mice, and BALB/c mice are the receptor mice.
The receptor mice are sent to an irradiation center to receive 8.5 Gry systemic irradiation on the day before transplantation, and after the irradiation, the mice are randomly divided into groups according to the body weights of the mice. On day 0, after 3-5% isoflurane pre-anesthesia, the donor mice are killed by cervical dislocation, and spleens are excised in a sterile environment, ground, and filtered by a sterile filter. Then red blood cells are digested with ammonium chloride buffer solution, lymphocytes are washed twice with RPMI 1640 culture solution, and finally resuspended in RPMI 1640 culture solution containing 10% fetal bovine serum, to prepare a lymphocyte suspension.
The receptor mice are divided into 6 groups, and each group includes 10 mice.

Row | SMILES | survival rate at 61 days (CS12192 40 mg/kg twice a day, p<0.0005 relative to the vehicle control) | survival rate at 61 days (CS12192 80 mg/kg twice a day, p<0.0001 relative to the vehicle control) | weight gains of the mice (CS12192 two-dose groups (40 and 80 mg/kg twice a day) versus positive drug prednisolone group and solvent control group (FIG. 2)) | survival rate at 61 days (prednisolone 20 mg/kg once a day, p<0.01 relative to the vehicle control)
1 | C=CC(=O)N(C)c1cc(Nc2ncc(Cl)c(NCCCNC(=O)c3ccc(C#N)cc3)n2)ccc1F [CS12192] | 89% | 100% | significantly better than that of the positive drug prednisolone group | 
2 | C[C@]12C=CC(=O)C=C1CC[C@@H]1[C@@H]2[C@@H](O)C[C@@]2(C)[C@H]1CC[C@]2(O)C(=O)CO [prednisolone, reference compound] |  |  |  | 67%
